Activity calls are given as the source filed them. No cut-off for these calls is given here.
What was measured:
[1] = target: Telomerase reverse transcriptase (Homo sapiens, UniProt O14746); assay: Inhibition of telomerase activity in human HL-60 cells incubated for 96 hrs by TRAP-PCR assay; assay type: cell-based
[2] = system: CT26; assay: cells; details: Mus musculus, CT26, 96 h
Description: Antiproliferative activity against mouse CT26 cells assessed as inhibition of cell growth measured after 96 hrs by CCK-8 assay

[3] = target: Telomerase Cajal body protein 1 (Homo sapiens) (UniProt Q9BUR4); assay: Inhibition of hTERT binding to TCAB1 in human HL-60 cells at 10 uM incubated for 48 hrs by Co-IP analysis; assay type: cell-based
[4] = target: Telomerase Cajal body protein 1 (Homo sapiens) (UniProt Q9BUR4); assay: Thermal stabilization of TCAB1 in human HL-60 cells at 10 uM incubated for 30 mins by CETSA; assay type: cell-based
[5] = system: HL-60; assay: cells; details: Homo sapiens, HL-60, 96 h
Description: Antiproliferative activity against human HL-60 cells assessed as inhibition of cell growth measured after 96 hrs by CCK-8 assay

[6] = Cytotoxicity against human GES1 cells assessed as inhibition of cell growth measured after 96 hrs by CCK-8 assay; assay type: toxicity, cell-based

Sequence of Telomerase reverse transcriptase (O14746 whole entry): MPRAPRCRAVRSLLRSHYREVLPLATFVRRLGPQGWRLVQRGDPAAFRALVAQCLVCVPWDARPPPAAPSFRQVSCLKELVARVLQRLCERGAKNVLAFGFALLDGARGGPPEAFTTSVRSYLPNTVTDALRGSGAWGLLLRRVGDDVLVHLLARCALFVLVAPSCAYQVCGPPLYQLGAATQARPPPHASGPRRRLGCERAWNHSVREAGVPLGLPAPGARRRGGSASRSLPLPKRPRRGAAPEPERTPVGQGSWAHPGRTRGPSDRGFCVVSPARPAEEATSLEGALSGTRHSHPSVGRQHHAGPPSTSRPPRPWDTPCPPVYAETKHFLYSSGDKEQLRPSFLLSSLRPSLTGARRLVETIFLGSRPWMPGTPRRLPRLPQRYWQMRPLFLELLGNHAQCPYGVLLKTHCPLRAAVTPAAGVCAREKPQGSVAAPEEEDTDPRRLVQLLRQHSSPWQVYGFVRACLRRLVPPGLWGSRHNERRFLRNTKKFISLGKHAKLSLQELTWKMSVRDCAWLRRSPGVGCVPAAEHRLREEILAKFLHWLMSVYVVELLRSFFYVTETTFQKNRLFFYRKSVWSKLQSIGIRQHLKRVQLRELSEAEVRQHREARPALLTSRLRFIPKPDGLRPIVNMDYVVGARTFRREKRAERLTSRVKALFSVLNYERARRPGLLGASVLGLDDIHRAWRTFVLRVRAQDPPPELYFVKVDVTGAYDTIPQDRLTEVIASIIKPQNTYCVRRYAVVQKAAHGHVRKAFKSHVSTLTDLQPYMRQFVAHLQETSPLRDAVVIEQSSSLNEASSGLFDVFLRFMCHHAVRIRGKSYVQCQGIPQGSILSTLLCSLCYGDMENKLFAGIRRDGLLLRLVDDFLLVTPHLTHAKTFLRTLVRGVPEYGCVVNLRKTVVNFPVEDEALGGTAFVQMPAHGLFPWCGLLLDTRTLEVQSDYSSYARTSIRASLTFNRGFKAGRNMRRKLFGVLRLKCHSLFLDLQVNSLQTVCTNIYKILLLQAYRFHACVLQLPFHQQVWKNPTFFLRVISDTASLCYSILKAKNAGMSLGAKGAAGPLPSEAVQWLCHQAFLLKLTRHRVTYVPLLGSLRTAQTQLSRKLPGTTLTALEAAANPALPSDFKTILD
Sequence of Telomerase Cajal body protein 1 (Homo sapiens) (Q9BUR4 whole entry): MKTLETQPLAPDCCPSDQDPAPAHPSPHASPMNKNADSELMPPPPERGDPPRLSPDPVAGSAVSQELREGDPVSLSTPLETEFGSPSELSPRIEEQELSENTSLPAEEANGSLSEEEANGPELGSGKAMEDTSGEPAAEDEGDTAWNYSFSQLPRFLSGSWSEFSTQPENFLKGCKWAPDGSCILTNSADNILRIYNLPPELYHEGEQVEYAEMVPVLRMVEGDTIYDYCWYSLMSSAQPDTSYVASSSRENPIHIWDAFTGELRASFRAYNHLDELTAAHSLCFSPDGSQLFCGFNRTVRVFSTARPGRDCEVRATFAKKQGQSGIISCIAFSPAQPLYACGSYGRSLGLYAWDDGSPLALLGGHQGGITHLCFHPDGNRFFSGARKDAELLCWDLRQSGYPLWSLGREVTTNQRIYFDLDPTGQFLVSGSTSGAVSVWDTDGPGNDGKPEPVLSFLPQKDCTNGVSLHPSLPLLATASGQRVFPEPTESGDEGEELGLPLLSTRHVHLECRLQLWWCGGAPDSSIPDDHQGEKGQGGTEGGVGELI

Compound	IC50 [1] [µM]	also measured
COc1ccc(C(=O)C2=C(O)C(=O)N(CCO)C2c2ccc(C)cc2)cc1 (configuration not stated)	> 10	–
CCC(CO)NS(=O)(=O)c1cccc2c(S(=O)(=O)NC(CC)CO)cccc12 (configuration not stated)	> 10	–
CC(=O)c1cccc(/N=c2\scc(-c3ccc(S(=O)(=O)N4CCOCC4)cc3)n2CCO)c1	> 10	–
O=C(CCS(=O)(=O)c1nc(-c2ccccc2)cc(C(F)(F)F)n1)Nc1cccnc1Cl	> 10	–
O=C(C1=C(O)C(=O)N(Cc2ccco2)C1c1cccc(O)c1)c1ccc2c(c1)OCCO2 (configuration not stated)	–	IC50 [2]: > 200 µM; inhibition [3]: inactive; Activity [4]: Active; IC50 [5]: > 200 µM; IC50 at 96 h [6]: > 1000 µM
CCOC(=O)c1cccc(NC(=O)CSc2nnc(-c3cccnc3)n2-c2ccc(OC)cc2)c1	> 10	–
CCOc1cc(C2NC(=O)N(C)C(C)=C2C(=O)OCC2CCCO2)cc(Cl)c1O (configuration not stated)	> 10	–
COc1ccc(C2C(C(=O)Nc3ccc(Cl)cc3)=C(C)N=C3N=C(CCCO)NN32)c(OC)c1 (configuration not stated)	> 10	–
C/C(=C\C(=O)Nc1ccccc1C(=O)O)c1ccc2ccccc2c1	0.091	IC50 [2]: 42.9 µM; IC50 [5]: 47.8 µM; IC50 at 96 h [6]: 206 µM
Cc1ccc2nc(NCCO)c(/C=C3\SC(=S)N(Cc4ccc5c(c4)OCO5)C3=O)c(=O)n2c1	> 10	–
COc1ccc(-c2ccc(S(=O)(=O)NCCO)cc2)c(S(=O)(=O)NCCO)c1	> 10	–
CCOc1cc(C2C(C#N)=C(N)Oc3n[nH]c(C(C)(C)C)c32)ccc1OCCN1CCOCC1 (configuration not stated)	> 10	–
CCOc1cc(C2NC(=O)NC(C)=C2C(=O)OCc2ccc3c(c2)OCO3)ccc1O (configuration not stated)	> 10	–
O=C(C1=C(O)C(=O)N(CCOCCO)C1c1cccc(O)c1)c1cccs1 (configuration not stated)	> 10	–
CCCc1cc(=O)oc2cc(OCC(=O)Nc3ccc(S(N)(=O)=O)cc3)c(Cl)cc12	> 10	–
CCOC(=O)C1=C(C)N=c2s/c(=C\c3ccc(O)c(OC)c3)c(=O)n2C1c1ccc(OCC)cc1 (configuration not stated)	> 10	–
CCOc1cc(/C=C2/C(=N)N3N=C(C)SC3=NC2=O)ccc1OCCOc1cccc(OC)c1	> 10	–
CCn1c(CN2NC(C)=CCC2=O)nnc1SCC(=O)Nc1ccc(S(N)(=O)=O)cc1	> 10	–
COC(=O)C1=C(C)N(CC2CCCO2)C(=O)/C1=C\c1ccc(OCC(=O)NC(C)C)cc1 (configuration not stated)	–	IC50 [2]: 26.9 µM; inhibition [3]: inactive; Activity [4]: Active; IC50 [5]: 156 µM; IC50 at 96 h [6]: > 1000 µM
CCOc1ccc(N2C(=O)CC(N(CCc3ccc(S(N)(=O)=O)cc3)C(C)=O)C2=O)cc1 (configuration not stated)	> 10	–
C#CCOc1ccc(/C=C2\SC(Nc3ccc(OCC)cc3)=C(C(=O)OCC)C2=O)cc1OC	–	IC50 [2]: 46.3 µM; inhibition [3]: inactive; Activity [4]: Active; IC50 [5]: > 200 µM; IC50 at 96 h [6]: > 1000 µM
CC(=O)Nc1ccc(/C=C2\C=C(C(O)c3ccc(NC(C)=O)cc3)c3ccccc32)cc1 (configuration not stated)	> 10	–

Reference: ChEMBL document CHEMBL5579876, “Small Molecules Blocking the Assembly of TCAB1 and Telomerase Complexes: Lead Discovery and Biological Activity” (ACS Med Chem Lett, 2024)
